The values that follow come from US9334263B2, “Compositions useful for treating disorders related to kit” (BLUEPRINT MEDICINES CORPORATION, priority 2013, dated 2016).

Molecules are shown by their SMILES.

For the first experiment, the target named is T1, Kit D816V (HMC1.2 cells, Kit V560G and D816V) (Homo sapiens, UniProt P10721, D816V/V560G).
T1 construct: endogenous in cells; host or cells: HMC1.2 cells
T1 sequence (P10721 26-976 V560G/D816V): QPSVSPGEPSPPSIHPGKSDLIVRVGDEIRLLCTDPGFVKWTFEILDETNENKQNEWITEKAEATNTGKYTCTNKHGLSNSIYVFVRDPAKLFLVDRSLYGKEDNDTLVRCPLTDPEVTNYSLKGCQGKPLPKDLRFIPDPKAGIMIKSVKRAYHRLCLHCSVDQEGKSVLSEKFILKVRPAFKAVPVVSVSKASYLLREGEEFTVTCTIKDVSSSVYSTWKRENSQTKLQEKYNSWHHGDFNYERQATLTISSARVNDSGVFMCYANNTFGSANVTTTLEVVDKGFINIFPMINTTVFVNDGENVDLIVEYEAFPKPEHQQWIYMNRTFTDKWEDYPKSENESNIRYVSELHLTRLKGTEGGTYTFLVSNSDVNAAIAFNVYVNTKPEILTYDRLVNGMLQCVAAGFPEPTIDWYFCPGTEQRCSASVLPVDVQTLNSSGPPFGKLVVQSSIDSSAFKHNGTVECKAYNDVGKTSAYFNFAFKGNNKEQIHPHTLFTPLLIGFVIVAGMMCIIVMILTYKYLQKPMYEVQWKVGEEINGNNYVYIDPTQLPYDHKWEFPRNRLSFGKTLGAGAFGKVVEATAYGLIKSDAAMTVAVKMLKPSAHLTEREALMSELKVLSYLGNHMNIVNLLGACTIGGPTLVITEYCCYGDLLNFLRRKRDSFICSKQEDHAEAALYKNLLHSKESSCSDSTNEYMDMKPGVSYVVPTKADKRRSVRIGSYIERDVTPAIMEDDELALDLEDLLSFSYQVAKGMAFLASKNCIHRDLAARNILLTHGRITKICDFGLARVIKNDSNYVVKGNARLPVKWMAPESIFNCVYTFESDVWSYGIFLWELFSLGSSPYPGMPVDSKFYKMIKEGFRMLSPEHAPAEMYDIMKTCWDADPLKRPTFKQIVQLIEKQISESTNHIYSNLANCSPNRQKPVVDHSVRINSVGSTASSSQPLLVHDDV
Nature of the experiment: HMC1.2 autophosphorylation assay (AlphaLISA, phospho-Y719 c-Kit). The class given is cell-based. The settings on record: Kit autophosphorylation at tyrosine 719, 90 minutes, read-out: Cellular Activity. An outline of the steps:
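AlphaScreen signal comes from lysed HMC1.2 cells incubated with phospho-Y719 and total c-Kit antibodies (15 nM final), acceptor beads and then streptavidin donor beads, 2 h each at room temperature. Beforehand, cells deprived of serum overnight received compound for 90 min as a 10-point series, 25 uM–95.4 pM, 0.25% DMSO.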
`Nc1nc(N2CCN(c3ncnc(Nc4ccc5c(c4)CNCC5)n3)CC2)ncc1Cc1ccccc1` [Compound 73]: the IC50 was < 10 nM.

As for `Oc1nc(N2CCN(c3ncnc(Nc4ccc5c(c4)CNCC5)n3)CC2)ncc1Cc1ccccc1` [Compound 75], the IC50 lay within 10 to 100 nM.

Regarding `c1ccc(Cc2cnc(N3CCN(c4ncnc(Nc5cnn(CC6CCNC6)c5)n4)CC3)nc2)cc1` (stereo not shown) [Compound 83], the IC50 fell in the range of 10 to 100 nM.

As to `CN(C)CCCn1cc(Nc2ncnc(N3CCN(c4ncc(Cc5ccccc5)cn4)CC3)n2)cn1` [Compound 88], the IC50 was in the range of 10 to 100 nM.

Turning to `c1ccc(Cc2cnc(N3CCN(c4ncnc(Nc5cccc(C6CCCNC6)c5)n4)CC3)nc2)cc1` (stereo not shown) [Compound 98], the IC50 was 10 to 100 nM.

With `C[C@H](O)Cn1cc(Nc2ncnc(N3CCN(c4ncc(Sc5ccc(F)cc5)cn4)CC3)n2)cn1` [Compound 101], the IC50 was < 10 nM.

`c1ccc(Cc2cnc(N3CCN(c4ncnc(Nc5ccc(N6CCNCC6)cc5)n4)CC3)nc2)cc1` [Compound 102]: the IC50 fell in the range of 10 to 100 nM.

For `c1ccc(Cc2cnc(N3CCN(c4ncnc(Nc5cnn(CC6CCNCC6)c5)n4)CC3)nc2)cc1` [Compound 116], the IC50 fell in the range of 10 to 100 nM.

Consider `c1ccc(Cc2cnc(N3CCN(c4ncnc(Nc5cnn(CC6CCCNC6)c5)n4)CC3)nc2)cc1` (stereo not shown) [Compound 117], for which the IC50 is 10 to 100 nM.

In the case of `c1ccc(Cc2cnc(N3CCN(c4ncnc(Nc5cnn(C[C@H]6CNCCO6)c5)n4)CC3)nc2)cc1` [Compound 123], the IC50 was < 10 nM.

On to `c1ccc(Cc2cnc(N3CCN(c4ncnc(Nc5cnn(C[C@@H]6CNCCO6)c5)n4)CC3)nc2)cc1` [Compound 124], for which the IC50 was 10 to 100 nM.

Regarding `CC(C)(O)Cn1cc(Nc2ncnc(N3CCN(c4ncc(Sc5ccc(F)cc5)cn4)CC3)n2)cn1` [Compound 149], the IC50 was in the range of 10 to 100 nM.

With `CN1CCN(Cc2cccc(Nc3ncnc(N4CCN(c5ncc(Cc6ccccc6)cn5)CC4)n3)c2)CC1` [Compound 211], the IC50 was 10 to 100 nM.

In the case of `O[C@@H]1CCCN(c2ccc(Nc3ncnc(N4CCN(c5ncc(Cc6ccc(F)cc6)cn5)CC4)n3)cc2)C1` [Compound 239], the IC50 lay in the range of 10 to 100 nM.

Take `Fc1ccc(Sc2cnc(N3CCN(c4ncnc(Nc5cnn(C[C@@H]6CNCCO6)c5)n4)CC3)nc2)cc1` [Compound 256]: the IC50 was 10 to 100 nM.

Take `CC(C)(c1ccccc1)c1cnc(N2CCN(c3ncnc(Nc4ccc(N5CCC[C@@H](O)C5)cc4)n3)CC2)nc1` [Compound 263]: the IC50 is 10 to 100 nM.

For `Cc1c(Nc2ncnc(N3CCN(c4ncc(Cc5ccc(F)cc5)cn4)CC3)n2)cnn1C[C@@H]1CNCCO1` [Compound 271], the IC50 is < 10 nM.

For the next experiment, the target named is T2, wild type Kit (Homo sapiens, UniProt P10721).
T2 construct: purchased Carna Bioscience 08-156
T2 sequence (P10721 26-976): as the sequence (P10721 26-976 V560G/D816V) above, with G535V, V791D counted along it
Nature of the experiment: Kit wild type assay at Km (Caliper electrophoretic mobility shift). Format: biochemical. Conditions: 400 uM ATP, 25 C, 90 minutes; read-out: WT KIT. An outline of the steps: (§1)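 Read-out is the ratio of phosphorylated to unphosphorylated fluorescent peptide, resolved by mobility shift on a Caliper EZ Reader 2.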
As to `Nc1nc(N2CCN(c3ncnc(Nc4ccc5c(c4)CNCC5)n3)CC2)ncc1Cc1ccccc1` [Compound 73], the IC50 is < 10 nM.

On to `Oc1nc(N2CCN(c3ncnc(Nc4ccc5c(c4)CNCC5)n3)CC2)ncc1Cc1ccccc1` [Compound 75], for which the IC50 is < 10 nM.

Turning to `c1ccc(Cc2cnc(N3CCN(c4ncnc(Nc5cnn(CC6CCNC6)c5)n4)CC3)nc2)cc1` (stereo not shown) [Compound 83], the IC50 is < 10 nM.

For `CN(C)CCCn1cc(Nc2ncnc(N3CCN(c4ncc(Cc5ccccc5)cn4)CC3)n2)cn1` [Compound 88], the IC50 lay within 11 to 100 nM.

Take `c1ccc(Cc2cnc(N3CCN(c4ncnc(Nc5cccc(C6CCCNC6)c5)n4)CC3)nc2)cc1` (stereo not shown) [Compound 98]: the IC50 is < 10 nM.

For the compound `c1ccc(Cc2cnc(N3CCN(c4ncnc(Nc5ccc(N6CCNCC6)cc5)n4)CC3)nc2)cc1` [Compound 102], the IC50 is < 10 nM.

Take `c1ccc(Cc2cnc(N3CCN(c4ncnc(Nc5cnn(CC6CCNCC6)c5)n4)CC3)nc2)cc1` [Compound 116]: the IC50 is < 10 nM.

As for `c1ccc(Cc2cnc(N3CCN(c4ncnc(Nc5cnn(CC6CCCNC6)c5)n4)CC3)nc2)cc1` (stereo not shown) [Compound 117], the IC50 is < 10 nM.

As for `c1ccc(Cc2cnc(N3CCN(c4ncnc(Nc5cnn(C[C@H]6CNCCO6)c5)n4)CC3)nc2)cc1` [Compound 123], the IC50 was < 10 nM.

Turning to `c1ccc(Cc2cnc(N3CCN(c4ncnc(Nc5cnn(C[C@@H]6CNCCO6)c5)n4)CC3)nc2)cc1` [Compound 124], the IC50 was < 10 nM.

Another experiment deals with T3, PDGFRA D842V (Homo sapiens, UniProt P16234, D842V).
T3 construct: purchased ProQinase 0761-0000-1
T3 sequence (P16234 24-1089 D842V): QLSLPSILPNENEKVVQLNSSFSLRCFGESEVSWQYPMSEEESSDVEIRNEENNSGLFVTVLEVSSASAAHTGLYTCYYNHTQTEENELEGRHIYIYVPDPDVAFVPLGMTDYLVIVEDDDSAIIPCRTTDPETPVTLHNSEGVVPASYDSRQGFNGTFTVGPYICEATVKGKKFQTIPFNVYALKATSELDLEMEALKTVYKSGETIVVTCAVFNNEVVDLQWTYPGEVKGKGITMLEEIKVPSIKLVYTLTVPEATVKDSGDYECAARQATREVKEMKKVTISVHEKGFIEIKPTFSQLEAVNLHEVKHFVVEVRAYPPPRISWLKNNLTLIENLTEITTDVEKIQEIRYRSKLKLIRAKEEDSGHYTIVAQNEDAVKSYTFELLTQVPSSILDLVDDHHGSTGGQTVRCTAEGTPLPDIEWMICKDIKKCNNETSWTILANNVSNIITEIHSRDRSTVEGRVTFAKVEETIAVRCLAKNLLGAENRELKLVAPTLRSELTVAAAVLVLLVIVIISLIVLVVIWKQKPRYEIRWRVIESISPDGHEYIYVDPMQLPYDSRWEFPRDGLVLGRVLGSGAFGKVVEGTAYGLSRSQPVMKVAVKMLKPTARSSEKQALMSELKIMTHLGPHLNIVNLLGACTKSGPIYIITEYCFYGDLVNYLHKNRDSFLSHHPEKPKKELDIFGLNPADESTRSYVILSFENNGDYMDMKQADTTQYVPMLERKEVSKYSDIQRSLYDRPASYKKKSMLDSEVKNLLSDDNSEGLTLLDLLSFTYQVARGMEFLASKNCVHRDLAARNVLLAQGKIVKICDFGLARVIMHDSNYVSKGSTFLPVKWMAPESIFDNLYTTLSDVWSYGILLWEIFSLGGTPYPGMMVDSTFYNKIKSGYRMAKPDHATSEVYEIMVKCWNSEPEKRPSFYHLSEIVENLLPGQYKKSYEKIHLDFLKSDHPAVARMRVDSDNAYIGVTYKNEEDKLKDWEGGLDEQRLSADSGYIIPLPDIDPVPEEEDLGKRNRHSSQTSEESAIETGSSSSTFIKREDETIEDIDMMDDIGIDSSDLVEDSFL
Nature of the experiment: PDGFRA D842V assay at Km (Caliper electrophoretic mobility shift). The settings on record: 15 uM ATP, 25 C, 90 minutes; read-out: PDFGRA D842V. Format: biochemical. The method, then:
In order to assess the activity of chemical compounds against the relevant kinase of interest, the Caliper LifeSciences electrophoretic mobility shift technology platform is used. Fluorescently labeled substrate peptide is incubated in the presence of kinase and ATP so that a […] proportion of the peptide is phosphorylated. At the end of the reaction, the mix of phosphorylated (product) and non-phosphorylated (substrate) peptides are passed through the microfluidic system of the Caliper EZ Reader 2, under an applied potential difference. The presence of the phosphate group on the product peptide provides a difference in mass and charge between those of the substrate peptide, resulting in a separation of the substrate and product pools in the sample. As the pools pass a LEDS within the instrument, these pools are detected and resolved as separate peaks. The ratio between these peaks therefore reflects the activity of the chemical matter at that concentration in that well, under those conditions.
The reaction was stopped by the addition of 70 ul of Stop buffer (100 mM HEPES pH 7.5, 0.015% Brij 35, 35 mM EDTA and 0.2% of Coating Reagent 3 (Caliper Lifesciences)). The plate was then read on a Caliper EZReader 2 (protocol settings: −1.9 psi, upstream voltage −500, downstream voltage −3000, post sample sip 38 s).
Regarding `Nc1nc(N2CCN(c3ncnc(Nc4ccc5c(c4)CNCC5)n3)CC2)ncc1Cc1ccccc1` [Compound 73], the IC50 is < 1 nM.

With `Oc1nc(N2CCN(c3ncnc(Nc4ccc5c(c4)CNCC5)n3)CC2)ncc1Cc1ccccc1` [Compound 75], the IC50 is < 1 nM.

As to `c1ccc(Cc2cnc(N3CCN(c4ncnc(Nc5cnn(CC6CCNC6)c5)n4)CC3)nc2)cc1` (stereo not shown) [Compound 83], the IC50 is < 1 nM.

With `CN(C)CCCn1cc(Nc2ncnc(N3CCN(c4ncc(Cc5ccccc5)cn4)CC3)n2)cn1` [Compound 88], the IC50 is < 1 nM.

Consider `c1ccc(Cc2cnc(N3CCN(c4ncnc(Nc5cccc(C6CCCNC6)c5)n4)CC3)nc2)cc1` (stereo not shown) [Compound 98], for which the IC50 was < 1 nM.

`C[C@H](O)Cn1cc(Nc2ncnc(N3CCN(c4ncc(Sc5ccc(F)cc5)cn4)CC3)n2)cn1` [Compound 101]: the IC50 is < 1 nM.

For the compound `c1ccc(Cc2cnc(N3CCN(c4ncnc(Nc5ccc(N6CCNCC6)cc5)n4)CC3)nc2)cc1` [Compound 102], the IC50 is < 1 nM.

With `c1ccc(Cc2cnc(N3CCN(c4ncnc(Nc5cnn(CC6CCNCC6)c5)n4)CC3)nc2)cc1` [Compound 116], the IC50 was < 1 nM.

Consider `c1ccc(Cc2cnc(N3CCN(c4ncnc(Nc5cnn(CC6CCCNC6)c5)n4)CC3)nc2)cc1` (stereo not shown) [Compound 117], for which the IC50 is < 1 nM.

On to `c1ccc(Cc2cnc(N3CCN(c4ncnc(Nc5cnn(C[C@H]6CNCCO6)c5)n4)CC3)nc2)cc1` [Compound 123], for which the IC50 was < 1 nM.

Turning to `c1ccc(Cc2cnc(N3CCN(c4ncnc(Nc5cnn(C[C@@H]6CNCCO6)c5)n4)CC3)nc2)cc1` [Compound 124], the IC50 was < 1 nM.

In the case of `CC(C)(O)Cn1cc(Nc2ncnc(N3CCN(c4ncc(Sc5ccc(F)cc5)cn4)CC3)n2)cn1` [Compound 149], the IC50 is 1.01 to 10 nM.

In the case of `CN1CCN(Cc2cccc(Nc3ncnc(N4CCN(c5ncc(Cc6ccccc6)cn5)CC4)n3)c2)CC1` [Compound 211], the IC50 was in the range of 1.01 to 10 nM.

For the compound `O[C@@H]1CCCN(c2ccc(Nc3ncnc(N4CCN(c5ncc(Cc6ccc(F)cc6)cn5)CC4)n3)cc2)C1` [Compound 239], the IC50 was in the range of 1.01 to 10 nM.

`Fc1ccc(Sc2cnc(N3CCN(c4ncnc(Nc5cnn(C[C@@H]6CNCCO6)c5)n4)CC3)nc2)cc1` [Compound 256]: the IC50 was 1.01 to 10 nM.

Take `CC(C)(c1ccccc1)c1cnc(N2CCN(c3ncnc(Nc4ccc(N5CCC[C@@H](O)C5)cc4)n3)CC2)nc1` [Compound 263]: the IC50 was 1.01 to 10 nM.

For the compound `Cc1c(Nc2ncnc(N3CCN(c4ncc(Cc5ccc(F)cc5)cn4)CC3)n2)cnn1C[C@@H]1CNCCO1` [Compound 271], the IC50 is 1.01 to 10 nM.

In the next experiment the target is T4, D816V Kit (Homo sapiens, UniProt P10721, D816V).
T4 construct: purchased Carna Bioscience 08-156
T4 sequence (P10721 26-976 D816V): as the sequence (P10721 26-976 V560G/D816V) above, with G535V counted along it
Description: Kit D816V assay at Km (Caliper electrophoretic mobility shift). Conditions: 15 uM ATP, 25 C, 90 minutes. Format: biochemical. In a few lines:
as §1
Consider `Nc1nc(N2CCN(c3ncnc(Nc4ccc5c(c4)CNCC5)n3)CC2)ncc1Cc1ccccc1` [Compound 73], for which the IC50 was < 1 nM.

On to `Oc1nc(N2CCN(c3ncnc(Nc4ccc5c(c4)CNCC5)n3)CC2)ncc1Cc1ccccc1` [Compound 75], for which the IC50 is < 1 nM.

Turning to `c1ccc(Cc2cnc(N3CCN(c4ncnc(Nc5cnn(CC6CCNC6)c5)n4)CC3)nc2)cc1` (stereo not shown) [Compound 83], the IC50 is < 1 nM.

Regarding `CN(C)CCCn1cc(Nc2ncnc(N3CCN(c4ncc(Cc5ccccc5)cn4)CC3)n2)cn1` [Compound 88], the IC50 is < 1 nM.

Regarding `c1ccc(Cc2cnc(N3CCN(c4ncnc(Nc5cccc(C6CCCNC6)c5)n4)CC3)nc2)cc1` (stereo not shown) [Compound 98], the IC50 is < 1 nM.

As for `C[C@H](O)Cn1cc(Nc2ncnc(N3CCN(c4ncc(Sc5ccc(F)cc5)cn4)CC3)n2)cn1` [Compound 101], the IC50 was < 1 nM.

As for `c1ccc(Cc2cnc(N3CCN(c4ncnc(Nc5ccc(N6CCNCC6)cc5)n4)CC3)nc2)cc1` [Compound 102], the IC50 is < 1 nM.

In the case of `c1ccc(Cc2cnc(N3CCN(c4ncnc(Nc5cnn(CC6CCNCC6)c5)n4)CC3)nc2)cc1` [Compound 116], the IC50 is < 1 nM.

As for `c1ccc(Cc2cnc(N3CCN(c4ncnc(Nc5cnn(CC6CCCNC6)c5)n4)CC3)nc2)cc1` (stereo not shown) [Compound 117], the IC50 was < 1 nM.

In the case of `c1ccc(Cc2cnc(N3CCN(c4ncnc(Nc5cnn(C[C@H]6CNCCO6)c5)n4)CC3)nc2)cc1` [Compound 123], the IC50 was < 1 nM.

For `c1ccc(Cc2cnc(N3CCN(c4ncnc(Nc5cnn(C[C@@H]6CNCCO6)c5)n4)CC3)nc2)cc1` [Compound 124], the IC50 is < 1 nM.

Consider `CC(C)(O)Cn1cc(Nc2ncnc(N3CCN(c4ncc(Sc5ccc(F)cc5)cn4)CC3)n2)cn1` [Compound 149], for which the IC50 is < 1 nM.

As for `CN1CCN(Cc2cccc(Nc3ncnc(N4CCN(c5ncc(Cc6ccccc6)cn5)CC4)n3)c2)CC1` [Compound 211], the IC50 is < 1 nM.

In the case of `O[C@@H]1CCCN(c2ccc(Nc3ncnc(N4CCN(c5ncc(Cc6ccc(F)cc6)cn5)CC4)n3)cc2)C1` [Compound 239], the IC50 lay within 1.01 to 10 nM.

In the case of `Fc1ccc(Sc2cnc(N3CCN(c4ncnc(Nc5cnn(C[C@@H]6CNCCO6)c5)n4)CC3)nc2)cc1` [Compound 256], the IC50 is < 1 nM.

For the compound `CC(C)(c1ccccc1)c1cnc(N2CCN(c3ncnc(Nc4ccc(N5CCC[C@@H](O)C5)cc4)n3)CC2)nc1` [Compound 263], the IC50 fell in the range of 1.01 to 10 nM.

Take `Cc1c(Nc2ncnc(N3CCN(c4ncc(Cc5ccc(F)cc5)cn4)CC3)n2)cnn1C[C@@H]1CNCCO1` [Compound 271]: the IC50 lay within 1.01 to 10 nM.
